In patent publication US12152030B2 (NOVOSTAR PHARMACEUTICALS, LTD., priority 2019, dated 2024):
pIC50: −log10 of the molar value.

How the values were obtained:
[1] = system: PD-1; experiment: Expression of immune checkpoint PD-1 on cell surface of PHA-activated PBMC (flow cytometry); assay type: cell-based, human; conditions: 5 μg/ml PHA, 0.01-10 μM, 48 hours
Protocol: (§1) Gradient centrifugation was used to extract PBMC cells from peripheral blood of healthy people. The PBMC cells were activated with 5 μg/ml PHA (Sigma), and treated with different concentrations of compounds (0, 0.01, 0.1, 1, 3, 10 μM). After 48 hours, the cells and culture supernatants were collected, respectively. Flow cytometry was used to detect the expression of immune checkpoints, PD-1, Tim-3 and Lag-3 on cell surface, and to detect the secretion level of various cytokines (IL-6, IL-10 and TNF-α) in the cell culture supernatants.

[2] = system: Tim-3; experiment: Expression of immune checkpoint Tim-3 on cell surface of PHA-activated PBMC (flow cytometry); assay type: cell-based, human; conditions: 5 μg/ml PHA, 0.01-10 μM, 48 hours
Protocol: as §1

[3] = system: Lag-3; experiment: Expression of immune checkpoint Lag-3 on cell surface of PHA-activated PBMC (flow cytometry); assay type: cell-based, human; conditions: 5 μg/ml PHA, 0.01-10 μM, 48 hours
Protocol: as §1

[4] = system: IL-10; experiment: Secretion level of IL-10 in PHA-activated PBMC culture supernatants; assay type: cell-based, human; conditions: 5 μg/ml PHA, 0.01-10 μM, 48 hours
Protocol: as §1

[5] = system: IL-6; experiment: Secretion level of IL-6 in PHA-activated PBMC culture supernatants; assay type: cell-based, human; conditions: 5 μg/ml PHA, 0.01-10 μM, 48 hours
Protocol: as §1

[6] = system: TNF-α; experiment: Secretion level of TNF-α in PHA-activated PBMC culture supernatants; assay type: cell-based, human; conditions: 5 μg/ml PHA, 0.01-10 μM, 48 hours
Protocol: as §1

[7] = target: MNK1 (Homo sapiens, UniProt Q9BUB5); experiment: MNK biological enzyme assay (HTRF kinase assay), MNK1; assay type: biochemical; set-up: purchased ThermoFisher PV6023; conditions: 3 ng/ul MNK1, 1 μM STK1 peptide, 100 μM ATP
Protocol: (§2) A HTRF kinase assay kit (Cisbio, catalog number 62ST1PEB) was used to determine the MNK inhibitory activity of the compounds. All kinase reactions were performed in the reaction buffer (provided in the kit). The final MNK1 reaction involved 3 ng/ul recombinant MNK1 (ThermoFisher, PV6023), 1 μM MNK substrate peptide STK1 (provided in the kit), 100 μM ATP, and different concentrations of the inhibitory compounds of interest. The final MNK2 reaction involved 1 ng/μl recombinant MNK2 (ThermoFisher, PV5607), 1 μM MNK substrate peptide STK1 (provided in the kit), 100 μM ATP, and different concentrations of the inhibitory compounds of interest. The final DMSO concentration in each of the reactions was 1%.
(§3) The kinase reaction was performed in a final volume of 10 μl in a 384-well white flat-bottomed polystyrene plate. The MNK1/2 enzyme was pre-incubated with the compound and substrate peptide for 5 minutes, and then ATP was added thereto. After addition of ATP, the kinase reaction was incubated at 25° C. for 120 minutes or 60 minutes. The reaction was subsequently terminated by adding 5 μl of EU3+ substrate antibody detection reagent and 5 μl of XL665 detection reagent, and incubating for another 60 minutes. The luminescent signal was detected with an EnVision microplate reader counter (Perkin Elmer), and the signal from 10-point dilution series of the compounds was used to calculate the compound concentration (IC50) required to achieve 50% inhibition of enzyme activity.
(§4) In this respect, IC50 values which are less than 0.01 μM were marked as “+++”, which are from 0.01 to 0.1 μM were marked as “++”, and which are greater than 0.1 and up to 10.0 μM were marked as “+”, and NA meant “not detected”.

[8] = target: MNK2 (Homo sapiens, UniProt Q9HBH9); experiment: MNK biological enzyme assay (HTRF kinase assay), MNK2; assay type: biochemical; set-up: purchased ThermoFisher PV5607; conditions: 1 ng/μl MNK2, 1 μM STK1 peptide, 100 μM ATP
Protocol: as §2, §3, §4

[9] = system: Phosphorylated eIF4E; experiment: Intracellular peIF4E signaling assay; assay type: cell-based; conditions: 2 h; two hours incubation at 37° C.; read-out: peIF4E signaling cell assay IC50
Protocol: Phosphorylated eIF4E was determined using CisBio peIF4E assay kit (CisBio, catalog number 64EF4PEG). The cells were plated in a 96-well cell culture plate in a volume of 90 μL, and the number of cells per well was 5*10^4. The compounds (10×) were subjected to 3-fold serial dilution, added to the cell plate in a volume of 10 μL with the final DMSO concentration being 1%, and incubated at 37° C. for two hours. The cell plate was centrifuged at 300 g for 5 minutes, and the cell supernatant was carefully removed. The cell plate was immediately added with 50 μL of cell lysis buffer […] and incubated at 25° C. with shaking for at least 30 minutes. After homogenization by pipetting, 16 μL of cell lysate was transferred from the 96-well cell culture plate to a 384-well small-volume microwell plate. According to the kit instruction, an antibody mixture solution was prepared with a detection buffer, and was added in a volume of 4 μL to the 384-well small-volume microwell plate containing the cell lysate. The plate was covered with a plate sealer, incubated overnight at 25° C., and was read for fluorescence emission at two different wavelengths (665 nm and 615 nm) on the EnVision microplate reader counter. The emission ratio was imported into a GraphPadPrism software to fit the compound concentration (IC50) required for 50% inhibition of enzyme activity.
In this respect, IC50 values which are less than 0.05 μM were marked as “+++”, which are from 0.05 to 1.0 μM were marked as “++”, and which are greater than 1.0 and up to 100 μM were marked as “+”, and NA meant “not detected”.

[10] = Pharmacokinetic study in rats; assay type: in vivo; conditions: male, SD, plasma, rat
Protocol: In the examples, rat pharmacokinetic tests were performed for compounds 2 and 26 to illustrate their pharmacokinetic properties in rats.
Formulation of Liquors of Compound 2: […]
Experimental Method for Pharmacokinetic Study in Rats
(§5) Six SD rats, male, weighing 180-220 g, fasting for 12 hours, were randomly divided into 2 groups, 3 in each group. The animals in group A were intragastrically administrated with the compound liquor at a dose of 10 mg/kg; the animals in group B were intravenously administrated with the compound liquor via tails at a dose of 3 mg/kg. Blank blood was harvested before administration; about 100 μL of venous blood was harvested at different time points after administration, placed in a test tube added with heparin and centrifuged, and about 50 μL of blood plasma was collected and stored at −20° C. for testing.
Formulation of Liquors of Compound 26: […]
Formulation of solution for intravenous administration: compound 26 was dissolved in a solution of 5% DMSO+10% Solutol HS15+85% (20% HP-(3-CD physiological saline).
Formulation of suspension for intragastric administration: compound 26 was dissolved in a solution of 5% DMSO+10% Solutol HS15+85% (20% HP-(3-CD physiological saline).
Administration dosage of compound 26: 1 mg/kg for intravenous injection, 3 mg/kg for intragastric administration.
as §5, with “of 3” for “of 10”, “of 1” for “of 3”

Sequence of MNK1 (Q9BUB5 whole entry): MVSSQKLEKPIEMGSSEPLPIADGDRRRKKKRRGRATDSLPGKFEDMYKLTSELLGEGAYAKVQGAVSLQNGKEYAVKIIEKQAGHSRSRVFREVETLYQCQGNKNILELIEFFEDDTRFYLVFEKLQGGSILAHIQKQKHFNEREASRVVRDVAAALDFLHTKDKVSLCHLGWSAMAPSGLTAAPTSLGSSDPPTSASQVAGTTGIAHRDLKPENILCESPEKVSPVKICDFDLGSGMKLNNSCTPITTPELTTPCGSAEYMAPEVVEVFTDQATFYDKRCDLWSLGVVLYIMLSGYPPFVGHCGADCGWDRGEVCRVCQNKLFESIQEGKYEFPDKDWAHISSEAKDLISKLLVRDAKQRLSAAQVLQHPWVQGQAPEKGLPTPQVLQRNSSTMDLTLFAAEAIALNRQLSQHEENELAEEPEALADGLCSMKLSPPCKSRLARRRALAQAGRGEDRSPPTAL
Sequence of MNK2 (Q9HBH9 whole entry): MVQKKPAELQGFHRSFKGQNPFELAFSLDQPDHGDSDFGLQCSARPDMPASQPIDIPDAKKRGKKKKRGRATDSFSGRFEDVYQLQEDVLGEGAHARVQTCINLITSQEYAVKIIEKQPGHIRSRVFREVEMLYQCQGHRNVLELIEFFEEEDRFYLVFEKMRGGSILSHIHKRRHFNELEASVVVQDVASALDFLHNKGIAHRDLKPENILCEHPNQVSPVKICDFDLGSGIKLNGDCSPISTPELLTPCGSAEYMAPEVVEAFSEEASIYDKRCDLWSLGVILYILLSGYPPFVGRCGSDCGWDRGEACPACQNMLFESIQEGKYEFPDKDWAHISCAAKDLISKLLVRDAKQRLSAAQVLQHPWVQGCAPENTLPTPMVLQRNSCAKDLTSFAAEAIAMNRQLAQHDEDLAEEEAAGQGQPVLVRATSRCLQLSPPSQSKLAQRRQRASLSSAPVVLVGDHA

## CC(=O)Nc1cc2c(cn1)Cc1c(C)c3n(c(=O)c1N2)C1(CCCCC1)NC3=O [Compound 21, 12(N-methyl-1,5-2,5,6,11-tetrahydro-1H-spiro[cyclohexane-1-imidazo[1,5-6]pyrido[3,4-b]naphthyridine1.6][8]′-yl)acetamide]
[1]
  inhibition of PD-1 expression: significantly inhibited
[2]
  inhibition of Tim-3 expression: significantly inhibited
[3]
  inhibition of Lag-3 expression: significantly inhibited
[4]
  inhibition of secretion of IL-10: significantly inhibited
[5]
  inhibition of secretion of IL-6: significantly inhibited
[6]
  inhibition of secretion of TNF-α: significantly inhibited
[7]
  pIC50: > 8.00
[8]
  pIC50: > 8.00

## Cc1c2c(c(=O)n3c1C(=O)NC31CCCCC1)Nc1cc(NC(=O)C3CC3)ncc1C2 [Compound 26]
[9]
  pIC50: > 7.30
[1]
  inhibition of PD-1 expression: significantly inhibited
[2]
  inhibition of Tim-3 expression: significantly inhibited
[3]
  inhibition of Lag-3 expression: significantly inhibited
[4]
  inhibition of secretion of IL-10: significantly inhibited
[5]
  inhibition of secretion of IL-6: significantly inhibited
[6]
  inhibition of secretion of TNF-α: significantly inhibited
[10]; iv, 1 mg/kg
  AUC(0-inf): 632 ng·h/mL
  AUC(0-t): 619 ng·h/mL
  clearance: 27.2 mL/min/kg
  half-life: 3.73 h
[10]; iv, i.v., 1 mg/kg, read-out: Vz
  Vd: 4.14 L/kg
[10]; oral, p.o. 3 mg/kg vs i.v. 1 mg/kg
  bioavailability: 21.7%
[10]; po, 3 mg/kg
  AUC(0-inf): 391 ng·h/mL
  AUC(0-t): 402 ng·h/mL
  Cmax: 45.2 ng/mL
  Tmax: 1.75 h
  half-life: 6.97 h
[7]
  pIC50: > 8.00
[8]
  pIC50: > 8.00
